Columns and labels:
[1] = target: T1, 3-beta-hydroxysteroid-Delta(8),Delta(7)-isomerase (Homo sapiens, UniProt Q15125); assay: Determination of Binding Affinity to EBP-7-Dehydrocholesterol Reductase
Method: Compounds were prepared in a 96-well U bottom plate using an Echo550 machine and 10 mM compound DMSO stock solution, followed by an 8-dose 5-fold serial dilutions protocol with final testing compound concentration ranging from 0.06 to 5000 nM, with DMSO back fill to 100 nL/well and n=2. […] The UniFilter-96 GF/B plates were pre-treated by adding 50 μl/well of 0.3% (v/v) PEI to UniFilter-96 GF/B plates. The plates were sealed and incubated at 4° C. for 3 hrs. Then, the plates were washed with ice-cold assay buffer 3 times. The radioligand binding assay was prepared by adding assay buffer diluted hEBP-DHCR7 membrane at 66.7 μg/ml x 150 μl/well into the 96-well compound plate to reach 10 μg membrane per well. Then, the assay buffer diluted [3H]-Compound 118A* was added at 25 nM×50 μl/well. Following this, the plate was centrifuged at 1000 rpm for 30 secs. The plate was then sealed and agitated at 600 rpm at 22° C. for 5 min, and then incubated at 22° C. for 3 hrs. The incubation was stopped by transferring the binding solution to the pre-treated UniFilter-96 GF/B plate, vacuum filtrated, and then washed four times with ice-cold assay buffer. Following this, the plates were dried at 37° C. for 45 min. The plates were then sealed at the bottom. 40 μl/well of scintillation cocktail was added to the plates. A MicroBeta2 microplate counter was then used to read the plate and analyze the data. For reference and test compounds, the results are expressed as % Inhibition, using the normalization equation: N=100-100×(U−C2)/(C1−C2), where U is the unknown value, C1 is the average of high controls, and C2 is the average value of low controls. The IC50 was determined by fitting percentage of inhibition as a function of compound concentrations with Hill equation using XLfit.

[2] = target: T1, 3-beta-hydroxysteroid-Delta(8),Delta(7)-isomerase; assay: Determination of Binding Affinity to EBP
Method: This binding solution was centrifuged at 400 g for 5 minutes to collect the bead/membrane mixture. After re-suspending the pellet in binding buffer at the same calculated volume with 0.01% BSA (Sigma A1933), the bead/membrane mixture was added in 384-well low-binding surface plate (PerkinElmer Cat #6057480) at 25 i/well. Radioligand at different concentrations with and without the non-radio-labeled same ligand 5 uM (for nonspecific and total signal, respectively) was added to bring final volume to 50 i/well with DMSO concentration at 0.1%. At equilibrium (3 hours after ligand addition), radiometric signal CPM was counted by using a Microbeta2 microplate counter (Perkinelmer).

T1 sequence (Q15125 whole entry): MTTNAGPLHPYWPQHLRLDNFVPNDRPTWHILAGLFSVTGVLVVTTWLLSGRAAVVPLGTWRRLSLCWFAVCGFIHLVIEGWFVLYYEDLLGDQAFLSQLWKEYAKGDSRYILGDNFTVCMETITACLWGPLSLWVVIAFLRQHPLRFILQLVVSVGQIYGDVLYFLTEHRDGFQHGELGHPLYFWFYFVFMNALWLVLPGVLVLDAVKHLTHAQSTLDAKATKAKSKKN

Row | Ki [1] | Ki [2] | SMILES
1 | 13.1 nM |  | O=S1(=O)CC2(CCN(CCOc3cnc(C(F)(F)F)c(Cl)c3)CC2)C1 [US20240400579, Example 242]
2 | 4.02 nM | 56 nM | CC(C)(Cc1ccc(C(F)(F)F)cc1)CN1CCC2(C1)CS(=O)(=O)C2 [US20240400579, Example 125]
3 | 9.45 nM |  | O=S1(=O)CC2(CCN(CCCc3ccc(C(F)(F)F)cc3)C2)C1 [US20240400579, Example 113]
4 | 25.3 nM |  | C[C@@H](Cc1ccc([C@@H]2CCCCO2)c(Cl)c1)CN1CCC2(C1)CS(=O)(=O)C2 [US20240400579, Example 124B]
5 | 18.5 nM |  | C[C@H](Cc1ccc(C2CCCCO2)c(Cl)c1)CN1CCC2(C1)CS(=O)(=O)C2 (stereo partly specified) [US20240400579, Example 124A]

Source: BindingDB's records for patent US20240400579 (Genentech, 2024)
